Test results published in ChEMBL document CHEMBL1154600, “Knowledge-based characterization of similarity relationships in the human protein-tyrosine phosphatase family for rational inhibitor design” (J Med Chem, 2009).

Legend:
[1] = molecular target: Tyrosine-protein phosphatase non-receptor type 6 (Homo sapiens, UniProt P29350)
[2] = molecular target: Receptor-type tyrosine-protein phosphatase beta (Homo sapiens, UniProt P23467); experiment: Inhibition of PTPRB
[3] = molecular target: T1, Receptor-type tyrosine-protein phosphatase C (Homo sapiens, UniProt P08575); experiment: Inhibition of PTPRC
T1 sequence (P08575 whole entry): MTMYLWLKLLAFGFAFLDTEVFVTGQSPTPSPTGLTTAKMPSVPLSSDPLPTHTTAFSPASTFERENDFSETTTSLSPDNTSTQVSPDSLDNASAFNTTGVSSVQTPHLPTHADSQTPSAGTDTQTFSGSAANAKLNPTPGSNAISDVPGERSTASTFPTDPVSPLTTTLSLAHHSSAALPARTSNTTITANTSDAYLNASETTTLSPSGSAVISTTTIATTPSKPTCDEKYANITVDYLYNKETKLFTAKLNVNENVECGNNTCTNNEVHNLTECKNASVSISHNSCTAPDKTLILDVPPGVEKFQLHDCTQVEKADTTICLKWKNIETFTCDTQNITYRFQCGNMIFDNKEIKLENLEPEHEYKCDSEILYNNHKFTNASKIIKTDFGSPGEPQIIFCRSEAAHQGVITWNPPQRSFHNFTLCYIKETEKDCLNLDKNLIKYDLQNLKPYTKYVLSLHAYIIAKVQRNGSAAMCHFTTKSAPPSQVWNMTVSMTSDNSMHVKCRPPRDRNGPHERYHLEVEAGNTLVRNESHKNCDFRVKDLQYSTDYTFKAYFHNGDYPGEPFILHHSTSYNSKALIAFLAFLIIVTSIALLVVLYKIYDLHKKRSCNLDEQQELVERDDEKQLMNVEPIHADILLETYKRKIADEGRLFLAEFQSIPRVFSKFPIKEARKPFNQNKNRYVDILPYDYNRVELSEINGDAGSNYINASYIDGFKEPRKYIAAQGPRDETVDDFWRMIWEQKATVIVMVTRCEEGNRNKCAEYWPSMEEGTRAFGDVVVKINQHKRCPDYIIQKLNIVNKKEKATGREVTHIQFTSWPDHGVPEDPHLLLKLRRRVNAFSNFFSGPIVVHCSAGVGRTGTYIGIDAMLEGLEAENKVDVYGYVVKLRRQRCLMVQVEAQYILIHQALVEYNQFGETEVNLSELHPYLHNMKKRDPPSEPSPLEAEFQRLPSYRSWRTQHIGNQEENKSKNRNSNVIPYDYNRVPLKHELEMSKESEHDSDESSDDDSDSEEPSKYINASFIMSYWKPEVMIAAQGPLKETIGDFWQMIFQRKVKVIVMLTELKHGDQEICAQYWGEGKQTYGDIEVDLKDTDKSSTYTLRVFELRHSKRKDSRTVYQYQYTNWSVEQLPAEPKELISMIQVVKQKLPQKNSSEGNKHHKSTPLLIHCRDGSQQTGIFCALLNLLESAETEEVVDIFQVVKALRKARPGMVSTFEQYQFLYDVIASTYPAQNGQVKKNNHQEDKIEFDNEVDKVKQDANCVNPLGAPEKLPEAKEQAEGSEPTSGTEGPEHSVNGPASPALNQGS

[4] = molecular target: Receptor-type tyrosine-protein phosphatase F (Homo sapiens, UniProt P10586); experiment: Inhibition of PTPRF
[5] = molecular target: Receptor-type tyrosine-protein phosphatase epsilon (Homo sapiens, UniProt P23469)
[6] = molecular target: T2, Tyrosine-protein phosphatase non-receptor type 2 (Homo sapiens, UniProt P17706)
T2 sequence (P17706 whole entry): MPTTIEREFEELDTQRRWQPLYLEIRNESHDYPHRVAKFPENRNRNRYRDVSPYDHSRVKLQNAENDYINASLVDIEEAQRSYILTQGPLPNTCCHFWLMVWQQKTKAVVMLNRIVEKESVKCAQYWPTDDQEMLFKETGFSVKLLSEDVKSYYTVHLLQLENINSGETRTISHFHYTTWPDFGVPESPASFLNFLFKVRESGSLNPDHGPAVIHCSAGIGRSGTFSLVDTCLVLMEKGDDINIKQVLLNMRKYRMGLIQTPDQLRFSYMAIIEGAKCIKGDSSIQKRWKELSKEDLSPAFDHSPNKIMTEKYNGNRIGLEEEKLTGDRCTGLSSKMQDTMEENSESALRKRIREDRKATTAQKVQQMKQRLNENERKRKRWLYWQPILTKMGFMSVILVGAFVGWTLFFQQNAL

[7] = molecular target: Tyrosine-protein phosphatase non-receptor type 2 (Homo sapiens) (UniProt P17706); experiment: Inhibition of PTPN2
[8] = molecular target: Receptor-type tyrosine-protein phosphatase alpha (Homo sapiens, UniProt P18433); experiment: Inhibition of PTPRA
Chain of Receptor-type tyrosine-protein phosphatase alpha (P18433 whole entry): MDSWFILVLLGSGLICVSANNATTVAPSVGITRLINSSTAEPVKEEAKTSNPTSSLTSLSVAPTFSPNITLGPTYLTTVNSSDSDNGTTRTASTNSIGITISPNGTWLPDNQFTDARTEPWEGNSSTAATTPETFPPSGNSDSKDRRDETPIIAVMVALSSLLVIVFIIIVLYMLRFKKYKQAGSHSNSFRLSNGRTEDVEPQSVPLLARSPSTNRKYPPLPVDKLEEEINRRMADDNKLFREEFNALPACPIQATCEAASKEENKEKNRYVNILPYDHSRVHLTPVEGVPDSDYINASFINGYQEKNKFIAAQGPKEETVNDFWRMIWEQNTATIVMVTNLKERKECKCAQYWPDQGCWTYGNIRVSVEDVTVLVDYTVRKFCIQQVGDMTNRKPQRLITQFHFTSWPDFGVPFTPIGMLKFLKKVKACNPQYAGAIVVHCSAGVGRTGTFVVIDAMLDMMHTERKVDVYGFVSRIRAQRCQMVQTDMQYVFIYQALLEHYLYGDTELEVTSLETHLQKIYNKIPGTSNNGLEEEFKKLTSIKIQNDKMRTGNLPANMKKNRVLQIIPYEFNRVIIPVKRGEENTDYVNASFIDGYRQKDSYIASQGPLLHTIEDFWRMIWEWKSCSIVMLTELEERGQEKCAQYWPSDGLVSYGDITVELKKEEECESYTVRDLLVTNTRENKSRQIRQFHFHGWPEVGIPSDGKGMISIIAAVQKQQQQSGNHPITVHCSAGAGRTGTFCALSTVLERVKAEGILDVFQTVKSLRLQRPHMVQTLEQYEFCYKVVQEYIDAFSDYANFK

Chain of Receptor-type tyrosine-protein phosphatase beta (P23467 whole entry): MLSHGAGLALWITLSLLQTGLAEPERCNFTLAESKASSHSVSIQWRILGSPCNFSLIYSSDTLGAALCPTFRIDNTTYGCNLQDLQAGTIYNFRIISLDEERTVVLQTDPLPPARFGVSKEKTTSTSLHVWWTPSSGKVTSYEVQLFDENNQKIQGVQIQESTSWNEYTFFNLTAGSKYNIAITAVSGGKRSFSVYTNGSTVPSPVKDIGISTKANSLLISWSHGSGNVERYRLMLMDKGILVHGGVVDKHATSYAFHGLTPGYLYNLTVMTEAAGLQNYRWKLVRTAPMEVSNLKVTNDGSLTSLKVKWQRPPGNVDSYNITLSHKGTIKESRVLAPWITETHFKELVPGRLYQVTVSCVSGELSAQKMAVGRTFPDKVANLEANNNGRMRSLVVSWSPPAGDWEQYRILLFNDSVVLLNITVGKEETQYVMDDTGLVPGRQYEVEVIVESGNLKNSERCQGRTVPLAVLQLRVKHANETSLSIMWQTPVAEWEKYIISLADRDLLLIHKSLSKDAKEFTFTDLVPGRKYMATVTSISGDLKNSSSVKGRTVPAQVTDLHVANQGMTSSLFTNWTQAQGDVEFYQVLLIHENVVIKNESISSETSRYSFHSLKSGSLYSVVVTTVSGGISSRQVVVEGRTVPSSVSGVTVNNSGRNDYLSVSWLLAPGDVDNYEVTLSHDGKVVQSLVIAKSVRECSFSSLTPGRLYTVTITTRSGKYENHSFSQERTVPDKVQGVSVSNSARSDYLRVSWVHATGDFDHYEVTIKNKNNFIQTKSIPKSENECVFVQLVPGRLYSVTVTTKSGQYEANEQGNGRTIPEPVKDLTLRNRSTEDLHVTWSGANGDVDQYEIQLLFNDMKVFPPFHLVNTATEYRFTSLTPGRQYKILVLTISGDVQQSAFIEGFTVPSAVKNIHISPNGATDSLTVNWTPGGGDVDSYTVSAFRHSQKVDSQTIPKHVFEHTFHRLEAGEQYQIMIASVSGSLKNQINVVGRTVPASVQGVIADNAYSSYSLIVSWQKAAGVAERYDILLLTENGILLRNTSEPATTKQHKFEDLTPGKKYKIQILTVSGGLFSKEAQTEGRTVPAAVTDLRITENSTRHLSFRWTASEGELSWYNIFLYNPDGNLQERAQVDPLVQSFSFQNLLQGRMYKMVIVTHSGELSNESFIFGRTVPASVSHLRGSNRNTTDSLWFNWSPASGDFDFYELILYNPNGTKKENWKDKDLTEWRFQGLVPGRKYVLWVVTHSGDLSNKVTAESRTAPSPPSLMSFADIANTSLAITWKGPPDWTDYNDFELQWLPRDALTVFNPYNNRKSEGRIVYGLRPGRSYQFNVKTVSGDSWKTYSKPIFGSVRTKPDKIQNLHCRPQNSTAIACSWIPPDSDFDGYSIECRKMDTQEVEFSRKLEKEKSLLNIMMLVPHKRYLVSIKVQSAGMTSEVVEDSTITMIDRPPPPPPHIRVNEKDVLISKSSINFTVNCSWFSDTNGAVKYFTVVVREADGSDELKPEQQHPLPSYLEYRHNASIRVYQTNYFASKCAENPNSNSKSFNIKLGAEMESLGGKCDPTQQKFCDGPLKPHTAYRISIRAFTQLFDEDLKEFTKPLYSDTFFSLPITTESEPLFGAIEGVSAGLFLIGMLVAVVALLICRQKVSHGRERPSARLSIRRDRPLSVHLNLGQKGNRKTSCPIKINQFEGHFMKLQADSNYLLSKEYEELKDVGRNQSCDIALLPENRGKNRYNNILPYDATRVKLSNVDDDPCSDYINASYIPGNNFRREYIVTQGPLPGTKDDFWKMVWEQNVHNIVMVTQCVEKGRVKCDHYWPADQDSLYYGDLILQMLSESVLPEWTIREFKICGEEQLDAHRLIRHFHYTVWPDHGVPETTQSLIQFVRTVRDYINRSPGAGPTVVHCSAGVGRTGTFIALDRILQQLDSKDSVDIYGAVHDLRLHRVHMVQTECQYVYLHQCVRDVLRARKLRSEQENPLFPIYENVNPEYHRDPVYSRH
Chain of Receptor-type tyrosine-protein phosphatase F (P10586 whole entry): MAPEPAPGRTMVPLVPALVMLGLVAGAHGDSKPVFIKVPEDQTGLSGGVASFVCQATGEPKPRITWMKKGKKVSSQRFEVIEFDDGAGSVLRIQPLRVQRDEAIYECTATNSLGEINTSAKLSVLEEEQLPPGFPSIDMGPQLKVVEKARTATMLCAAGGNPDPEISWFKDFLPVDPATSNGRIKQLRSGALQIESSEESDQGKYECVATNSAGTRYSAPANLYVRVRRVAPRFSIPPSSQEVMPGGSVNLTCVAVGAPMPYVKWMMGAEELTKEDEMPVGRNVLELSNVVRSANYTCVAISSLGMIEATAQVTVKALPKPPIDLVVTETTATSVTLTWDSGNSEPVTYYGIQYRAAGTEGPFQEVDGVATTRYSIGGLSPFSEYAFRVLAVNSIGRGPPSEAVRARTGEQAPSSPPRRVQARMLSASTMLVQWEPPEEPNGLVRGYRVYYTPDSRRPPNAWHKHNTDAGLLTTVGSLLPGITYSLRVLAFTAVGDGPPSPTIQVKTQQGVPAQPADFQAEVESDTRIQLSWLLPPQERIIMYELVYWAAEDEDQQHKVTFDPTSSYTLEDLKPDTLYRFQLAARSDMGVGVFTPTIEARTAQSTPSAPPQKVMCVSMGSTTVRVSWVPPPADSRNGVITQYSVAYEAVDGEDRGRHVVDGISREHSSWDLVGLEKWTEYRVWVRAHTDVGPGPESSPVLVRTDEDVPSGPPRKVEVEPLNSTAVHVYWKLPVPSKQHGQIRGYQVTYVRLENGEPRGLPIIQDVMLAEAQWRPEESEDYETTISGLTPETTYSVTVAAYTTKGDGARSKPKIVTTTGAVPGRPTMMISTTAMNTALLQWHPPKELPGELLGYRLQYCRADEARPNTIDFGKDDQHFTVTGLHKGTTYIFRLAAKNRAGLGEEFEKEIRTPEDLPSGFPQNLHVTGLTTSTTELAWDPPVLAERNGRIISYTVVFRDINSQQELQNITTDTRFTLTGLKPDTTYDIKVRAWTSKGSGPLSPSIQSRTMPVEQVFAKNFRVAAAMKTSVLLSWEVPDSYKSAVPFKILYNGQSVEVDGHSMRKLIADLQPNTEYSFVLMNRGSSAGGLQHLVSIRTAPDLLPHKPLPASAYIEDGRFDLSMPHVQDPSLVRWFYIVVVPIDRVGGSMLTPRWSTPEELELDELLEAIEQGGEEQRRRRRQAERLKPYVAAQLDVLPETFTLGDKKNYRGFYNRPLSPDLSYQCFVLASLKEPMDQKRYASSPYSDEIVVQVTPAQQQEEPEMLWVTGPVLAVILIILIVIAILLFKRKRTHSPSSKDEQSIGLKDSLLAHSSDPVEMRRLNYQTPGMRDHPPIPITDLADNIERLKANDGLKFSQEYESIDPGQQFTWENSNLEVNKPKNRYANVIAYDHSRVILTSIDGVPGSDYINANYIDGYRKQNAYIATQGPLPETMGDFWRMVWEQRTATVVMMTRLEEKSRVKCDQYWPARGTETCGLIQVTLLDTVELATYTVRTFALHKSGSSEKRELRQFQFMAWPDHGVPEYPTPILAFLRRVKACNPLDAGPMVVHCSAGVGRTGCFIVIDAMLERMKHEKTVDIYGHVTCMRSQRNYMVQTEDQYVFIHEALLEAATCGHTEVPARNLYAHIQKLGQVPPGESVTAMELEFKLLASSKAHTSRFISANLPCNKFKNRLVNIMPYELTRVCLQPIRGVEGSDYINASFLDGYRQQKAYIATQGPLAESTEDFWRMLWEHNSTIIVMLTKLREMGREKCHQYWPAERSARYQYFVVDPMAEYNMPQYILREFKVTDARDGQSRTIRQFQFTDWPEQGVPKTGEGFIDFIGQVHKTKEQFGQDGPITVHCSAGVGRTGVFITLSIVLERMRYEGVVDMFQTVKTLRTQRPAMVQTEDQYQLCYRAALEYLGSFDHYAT

| Ki [1] [µM] | Ki [2] [µM] | Ki [3] [µM] | Ki [4] [µM] | Ki [5] [µM] | Ki [6] [µM] | Ki [8] [µM] | Structure (SMILES) | Ki [7] [µM] |
| --- | --- | --- | --- | --- | --- | --- | --- | --- |
| 100 | 19 | 41 | – | – | – | – | O=C(O)C(=O)Nc1sc2c(c1C(=O)O)CCCC2 | – |
| – | – | – | > 1000 | – | – | – | CC1(C)CC(Nc2cccc(-c3sc(C(=O)O)c(OCC(=O)O)c3Br)c2)CC(C)(C)C1 | – |
| 510 | 33 | – | – | 130 | – | – | O=C(O)C(=O)Nc1ccccc1C(=O)O | – |
| – | – | > 1250 | 1100 | – | 9.2 | – | O=C(O)COc1c(C(=O)O)sc2c1sc1ccccc12 | 4.1 |
| 94 | 14 | 37 | 68 | 45 | 9.9 | 190 | O=C(O)C(=O)Nc1cc2ccccc2cc1C(O)O | – |
| – | – | 210 | – | 740 | 62 | – | O=C(O)C(=O)Nc1sccc1C(=O)O | – |
| 80 | 17 | 49 | – | 33 | 14 | – | O=C(O)C(=O)Nc1ccc(I)cc1C(=O)O | – |
| > 2000 | 560 | 59 | – | 1100 | 0.29 | – | O=C(O)C(=O)Nc1sc2c(c1C(=O)O)CCNC2 | – |
| – | – | – | > 500 | – | – | – | O=C(O)COc1c(C(=O)O)sc(-c2ccccc2)c1Br | – |
| 28 | 3.6 | 20 | 450 | 33 | 8 | 180 | O=C(O)C(=O)Nc1ccc2cc[nH]c2c1C(=O)O | – |
| 16 | 6 | 56 | 550 | 66 | 14 | 800 | O=C(O)C(=O)Nc1cc2[nH]ccc2cc1C(=O)O | – |
| – | – | 260 | – | 360 | 58 | > 2000 | O=C(O)C(=O)Nc1ccsc1C(=O)O | – |

| Structure (SMILES) | Ki [1] [µM] | Ki [2] [µM] | Ki [3] [µM] | Ki [4] [µM] | Ki [5] [µM] | Ki [6] [µM] | Ki [8] [µM] | Ki [7] [µM] |
| --- | --- | --- | --- | --- | --- | --- | --- | --- |
| O=C(O)C(=O)Nc1sc2c(c1C(=O)O)CCO[C@H]2COC1=NS(=O)(=O)c2ccccc21 | 289 | 21 | 489 | 176 | > 500 | 0.6 | > 500 | 1.1 |
